# Earlier results, collected in paper PMC10056348, “Photocaged Histone Deacetylase Inhibitors as Prodrugs in Targeted Cancer Therapy” (Pharmaceuticals, 2023).
# Test system: asexual blood stage and liver stage parasites
# Design: method as in PMID 30664827
# Conditions: cited from earlier work
smiles,measurement,value
"CN(C)c1ccc(C(=O)N(CC(=O)NCc2ccccc2)Cc2ccc(C(=O)NO)cc2)cc1 [I, N-[2-(benzylamino)-2-oxoethyl]-4-(dimethylamino)-N-[4-(hydroxycarbamoyl)-benzyl]-benzamide]",antiplasmodial activity,potent antiplasmodial activity
